{
  "source": "paper PMC10970734",
  "about": "“Identification of an Intravenous Injectable NK1 Receptor Antagonist for Use in Traumatic Brain Injury” (International Journal of Molecular Sciences, 2024)",
  "key": {"[1]": {"parameters": "method as in PMID 20795794, PMID 18042005", "settings": "slow infusion 20-30 min; cited from earlier work"}, "rodent model of TBI [2]": {"tested_on": "rodent model of TBI", "assay": "Mortality after severe impact-acceleration TBI", "type": "in vivo, Sprague Dawley rats", "settings": "rat severe TBI, 10 mg/kg 30 min after injury", "experimental": "Injury was induced using an impact-acceleration model of TBI which generates a rodent form of diffuse axonal injury, a major feature of clinical head injury. The level of injury induced in these studies was classified as “severe” [60]. In terms of assessing treatment effects, the study was performed in a blinded manner. […] In line with the “severe” nature of the injury, significant mortality rates were observed within the cohort of injured animals. However, the mortality rates varied between the treatment groups. In the “drug vehicle” group, a mortality rate of 30% was observed, which is in line with the nature of the injury.\nInjury was induced in halothane-anesthetized (ProVet) male Sprague Dawley rats (400 ± 20 g) using acceleration-induced impact TBI [29, 93]. This model involves impacting a 10 mm diameter, 3 mm thick stainless steel disc fixed centrally to the exposed skull between the lambda and bregma with an accelerating impactor. The impactor was a 450 g brass weight dropped from a height of 2 m. Earlier studies have shown that the impact acceleration injury produces diffuse axonal injury, oedema, BBB opening, Mg^2+ decline, and moderate-to-severe neurologic deficits. All animals were fed and watered ad libitum before the induction of injury. […] Blood pressure was monitored, both before and after injury, using a femoral arterial line. […]"}, "rodent model of TBI [3]": {"tested_on": "rodent model of TBI", "assay": "Motor function after TBI, rotarod test", "type": "in vivo, Sprague Dawley rats", "settings": "rat TBI, 10 mg/kg 30 min post-injury", "description": "The maximum duration of the task was 120 s.\nInjury was induced in halothane-anesthetized (ProVet) male Sprague Dawley rats (400 ± 20 g) using acceleration-induced impact TBI [29, 93]. This model involves impacting a 10 mm diameter, 3 mm thick stainless steel disc fixed centrally to the exposed skull between the lambda and bregma with an accelerating impactor. The impactor was a 450 g brass weight dropped from a height of 2 m. […] All animals were fed and watered ad libitum before the induction of injury. During both surgery and the immediate recovery phase, rat rectal temperature was maintained using a thermostatically controlled heating pad. Immediately after injury, animals were manually ventilated until stable respiration was restored, usually in <5 min. After injury, all wounds were sutured. Blood pressure was monitored, both before and after injury, using a femoral arterial line.\nMotor and cognitive outcomes in animals (n = 6 per group) were assessed using the rotarod and Barnes maze, respectively, as described in detail elsewhere [64]. The rotarod consists of a motorized rotating assembly of 18 rods (1 mm in diameter) upon which the animals were placed. The rotational speed of the device was increased from 0 to 30 r.p.m. and the duration (in seconds) when the animals either completed the task, fell from the rods, or gripped the rods and spun for two consecutive revolutions rather than walking actively was recorded as the rotarod score. […] After activating the bright lights and aversive auditory stimulus, the latency (in seconds) for the animal to locate and enter the escape tunnel was recorded. All animals were pretrained on both functional outcome tests twice per day over 5 days before injury to establish a normal, uninjured baseline."}, "rodent model of TBI [4]": {"tested_on": "rodent model of TBI", "assay": "Cognitive function after TBI, Barnes maze", "type": "in vivo, Sprague Dawley rats", "settings": "rat TBI, 10 mg/kg 30 min post-injury, 10 days", "experimental": "Cognitive outcome was assessed using the Barnes maze in order to reduce the potential confounding effects that may be associated with tests such as the Morris water maze. In the Barnes maze, animals were placed under a cover in the centre of an elevated 1.2 m diameter board containing 19 holes around the periphery. One hole contained the entrance to a darkened escape tunnel that was not visible from the surface, relying on the animal to use surrounding visual cues to locate the tunnel. The time, in seconds, for the animal to locate and enter the escape tunnel was recorded. Following pre-training, the effect of injury, and post-injury treatment, on the time taken for the animal to locate the tunnel was measured (Figure 7). […]\nInjury was induced in halothane-anesthetized (ProVet) male Sprague Dawley rats (400 ± 20 g) using acceleration-induced impact TBI [29, 93]. […] Blood pressure was monitored, both before and after injury, using a femoral arterial line. […]\nMotor and cognitive outcomes in animals (n = 6 per group) were assessed using the rotarod and Barnes maze, respectively, as described in detail elsewhere. […] The rotational speed of the device was increased from 0 to 30 r.p.m. and the duration (in seconds) when the animals either completed the task, fell from the rods, or gripped the rods and spun for two consecutive revolutions rather than walking actively was recorded as the rotarod score. […]"}, "NK1R": {"tested_on": "NK1R", "settings": "cited from earlier work"}, "[5]": {"parameters": "method as in PMID 20795794", "settings": "parent drug; cited from earlier work"}},
  "data": [
    {"molecule": "C[C@@H](O[C@H]1OCCN(Cc2nc(O)n(P(=O)(O)O)n2)[C@H]1c1ccc(F)cc1)c1cc(C(F)(F)F)cc(C(F)(F)F)c1", "note": "[Fosaprepitant, fosaprepitant]", "values": [
      {"measurement": "Time to conversion to aprepitant after end of infusion", "setting": "[1]", "value": "≤ 30", "unit": "min"}
    ]},
    {"molecule": "C[C@]12N[C@H](Cc3ccccc31)c1ccccc12", "note": "[MK801]", "values": [
      {"measurement": "Mortality rate", "setting": "rodent model of TBI [2]", "value": 48, "unit": "%"},
      {"measurement": "Motor function, rotarod score", "setting": "rodent model of TBI [3]; 10 days", "value": "did not provide any beneficial outcome relative to the drug vehicle"},
      {"measurement": "Recovery of motor function over the 10-day test period", "setting": "rodent model of TBI [3]; rotarod", "value": "approximately 50%"},
      {"measurement": "Cognitive function, Barnes maze time to locate escape tunnel", "setting": "rodent model of TBI [4]", "value": "performance returning close to pre-injury by the end of the study period"}
    ]},
    {"molecule": "CC(=O)N[C@@H](Cc1c[nH]c2ccccc12)C(=O)O", "note": "[NAT, N-acetyl-L-tryptophan]", "values": [
      {"measurement": "NK1R binding", "setting": "NK1R", "value": "lack of NK1R binding"}
    ]},
    {"molecule": "C[C@@H](O[C@H]1OCCN(Cc2n[nH]c(=O)[nH]2)[C@H]1c1ccc(F)cc1)c1cc(C(F)(F)F)cc(C(F)(F)F)c1", "note": "[aprepitant]", "values": [
      {"measurement": "Aqueous solubility", "setting": "[5]", "value": 0.2, "unit": "µg/mL"}
    ]}
  ]
}
